Measurements reported in US8003660B2, “Modulators of muscarinic receptors” (Vertex Pharmaceuticals Incorporated, priority 2006, dated 2011).
Where two headings read alike, the source gives them in different places.

Assays:
Format in all cases: cell-based
M1 muscarinic receptor = biological target: T1, M1 muscarinic receptor (Homo sapiens, UniProt P11229); assay: Functional mobilization of intracellular calcium (FLIPR) in CHO cells expressing M1; details: for EC50: CHO cells expressing M1, FLIPR calcium; for Emax: CHO
T1 construct: expressed in transfected cells; host or cells: CHO (M1-CHO)
T1 sequence (P11229 1-460): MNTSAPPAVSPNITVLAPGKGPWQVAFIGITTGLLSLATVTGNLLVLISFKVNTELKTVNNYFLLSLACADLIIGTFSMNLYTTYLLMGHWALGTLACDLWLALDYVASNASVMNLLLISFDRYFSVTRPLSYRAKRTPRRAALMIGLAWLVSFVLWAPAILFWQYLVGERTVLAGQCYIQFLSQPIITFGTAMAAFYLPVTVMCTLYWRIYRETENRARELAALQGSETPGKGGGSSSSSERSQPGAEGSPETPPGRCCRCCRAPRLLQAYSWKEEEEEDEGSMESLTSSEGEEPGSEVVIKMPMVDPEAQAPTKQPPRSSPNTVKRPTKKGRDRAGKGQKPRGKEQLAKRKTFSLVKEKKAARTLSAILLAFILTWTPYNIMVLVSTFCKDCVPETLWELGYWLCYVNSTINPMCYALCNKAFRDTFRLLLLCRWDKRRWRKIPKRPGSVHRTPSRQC
In short: (§1)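 Recombinant CHO cells loaded with Fluo-3 AM or Calcium 3 dye in pH 7.4 buffer containing 1 mM probenecid, with 0.5% final DMSO. For agonism, compound is added directly. For inhibition, it is preincubated 15 min, or co-applied, before carbachol at EC80. FLIPR fluorescence (ex 488, em 540 nm) is recorded for 60 s.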

M2 muscarinic receptor = biological target: T2, M2 muscarinic receptor (Homo sapiens, UniProt P08172); assay: Functional mobilization of intracellular calcium (FLIPR) in CHO cells expressing M2; details: for EC50: CHO cells expressing M2, FLIPR calcium; for Emax: CHO
T2 construct: expressed in transfected cells; host or cells: CHO (M2-CHO)
T2 sequence (P08172 1-466): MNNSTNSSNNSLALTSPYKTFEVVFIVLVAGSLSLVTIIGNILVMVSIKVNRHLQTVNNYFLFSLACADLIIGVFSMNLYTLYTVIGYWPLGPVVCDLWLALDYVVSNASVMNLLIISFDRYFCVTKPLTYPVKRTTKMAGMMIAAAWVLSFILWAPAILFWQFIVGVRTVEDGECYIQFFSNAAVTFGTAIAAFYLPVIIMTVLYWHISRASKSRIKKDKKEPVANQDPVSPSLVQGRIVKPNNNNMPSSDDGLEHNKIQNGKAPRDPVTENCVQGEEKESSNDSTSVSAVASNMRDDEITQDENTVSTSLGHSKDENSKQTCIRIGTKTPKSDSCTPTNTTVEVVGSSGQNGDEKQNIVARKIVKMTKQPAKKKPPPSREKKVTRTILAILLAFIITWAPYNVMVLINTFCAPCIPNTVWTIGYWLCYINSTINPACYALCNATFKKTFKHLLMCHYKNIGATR
In short: as §1

M3 muscarinic receptor = biological target: T3, M3 muscarinic receptor (Homo sapiens, UniProt P20309); assay: Functional mobilization of intracellular calcium (FLIPR) in CHO cells expressing M3; details: for EC50: CHO cells expressing M3, FLIPR calcium; for Emax: CHO
T3 construct: expressed in transfected cells; host or cells: CHO (M3-CHO)
In short: as §1

M4 muscarinic receptor = biological target: T4, M4 muscarinic receptor (Homo sapiens, UniProt P08173); assay: Functional mobilization of intracellular calcium (FLIPR) in CHO cells expressing M4; details: for EC50: CHO cells expressing M4, FLIPR calcium; for Emax: CHO
T4 construct: expressed in transfected cells; host or cells: CHO (M4-CHO)
T4 sequence (P08173 1-479): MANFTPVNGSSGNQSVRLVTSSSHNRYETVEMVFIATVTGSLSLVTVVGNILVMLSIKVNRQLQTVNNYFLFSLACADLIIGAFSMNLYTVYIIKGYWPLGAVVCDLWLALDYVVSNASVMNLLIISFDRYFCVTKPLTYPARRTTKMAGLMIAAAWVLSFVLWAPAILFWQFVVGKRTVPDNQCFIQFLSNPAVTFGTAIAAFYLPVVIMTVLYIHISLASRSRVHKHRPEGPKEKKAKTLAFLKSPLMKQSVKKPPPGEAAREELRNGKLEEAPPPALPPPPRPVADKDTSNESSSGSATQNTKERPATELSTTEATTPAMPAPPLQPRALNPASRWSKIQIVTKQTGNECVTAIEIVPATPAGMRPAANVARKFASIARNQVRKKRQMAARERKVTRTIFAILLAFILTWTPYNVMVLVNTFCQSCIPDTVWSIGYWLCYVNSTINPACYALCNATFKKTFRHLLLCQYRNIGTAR
In short: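 Read-out: FLIPR fluorescence (ex 488, em 540 nm) over 60 s. Recombinant CHO lines are dye-loaded (Fluo-3 AM or Calcium 3) with 1 mM probenecid. For antagonist mode, compound is pre-incubated 15 min, or co-applied, then carbachol is added at 3× EC80 per subtype.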

[1] = 100% = maximum response obtained with the Carbachol control, read-out: M1 Efficacy
[2] = 100% = maximum response obtained with the Carbachol control, read-out: M2 Efficacy
[3] = 100% = maximum response obtained with the Carbachol control, read-out: M3 Efficacy
[4] = 100% = maximum response obtained with the Carbachol control, read-out: M4 Efficacy
[5] = 100% efficacy = maximum response obtained with the Carbachol control

T3 sequence (P20309 whole entry): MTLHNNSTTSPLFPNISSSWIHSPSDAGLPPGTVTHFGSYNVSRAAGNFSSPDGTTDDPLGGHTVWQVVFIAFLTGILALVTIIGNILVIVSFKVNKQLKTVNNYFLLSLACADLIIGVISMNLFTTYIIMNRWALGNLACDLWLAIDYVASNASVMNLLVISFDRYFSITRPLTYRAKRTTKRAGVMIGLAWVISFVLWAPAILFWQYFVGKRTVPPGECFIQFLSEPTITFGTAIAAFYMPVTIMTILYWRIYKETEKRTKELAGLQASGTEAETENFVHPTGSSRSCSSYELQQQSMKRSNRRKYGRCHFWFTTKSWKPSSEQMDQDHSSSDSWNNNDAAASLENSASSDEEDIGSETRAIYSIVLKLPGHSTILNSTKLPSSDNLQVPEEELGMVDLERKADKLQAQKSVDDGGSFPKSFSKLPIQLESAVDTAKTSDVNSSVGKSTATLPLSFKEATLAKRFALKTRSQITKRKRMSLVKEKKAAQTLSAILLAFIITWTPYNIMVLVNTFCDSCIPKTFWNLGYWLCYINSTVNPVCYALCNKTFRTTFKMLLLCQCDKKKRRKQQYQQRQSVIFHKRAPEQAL

## CC(=O)N1CCCC[C@@H]1C(=O)N[C@@H]1CCC2(CCN(CCC(C)(C)C)CC2)c2cc(F)ccc21 [compound 149]
M1 muscarinic receptor
  EC50: 2 to 5 µM
M1 muscarinic receptor; [1]
  Emax: 25 to 100%
M2 muscarinic receptor
  EC50: 2 to 5 µM
M2 muscarinic receptor; [2]
  Emax: 25 to 100%
M3 muscarinic receptor
  EC50: > 5 µM
M3 muscarinic receptor; [3]
  Emax: < 25%
M4 muscarinic receptor
  EC50: < 2 µM
M4 muscarinic receptor; [4]
  Emax: 25 to 100%

## CCN(C(=O)CCC(F)(F)F)[C@H]1CCC2(CCN(CCC(C)(C)C)CC2)c2ccccc21 [compound 110]
M1 muscarinic receptor
  EC50: > 5 µM
M1 muscarinic receptor; [1]
  Emax: 25 to 100%
M2 muscarinic receptor
  EC50: > 5 µM
M2 muscarinic receptor; [2]
  Emax: < 25%
M3 muscarinic receptor
  EC50: > 5 µM
M3 muscarinic receptor; [3]
  Emax: < 25%
M4 muscarinic receptor
  EC50: < 2 µM
M4 muscarinic receptor; [4]
  Emax: 25 to 100%

## CC(C)CCN1CCC2(CC[C@H](NC(=O)N(C)C)c3ccccc32)CC1 [compound 148]
M1 muscarinic receptor
  EC50: > 5 µM
M1 muscarinic receptor; [1]
  Emax: < 25%
M2 muscarinic receptor
  EC50: > 5 µM
M2 muscarinic receptor; [2]
  Emax: < 25%
M3 muscarinic receptor
  EC50: > 5 µM
M3 muscarinic receptor; [3]
  Emax: < 25%
M4 muscarinic receptor
  EC50: 2 to 5 µM
M4 muscarinic receptor; [4]
  Emax: 25 to 100%

## COCCC(=O)N[C@H]1CCC2(CCN(CCC(C)(C)C)CC2)c2cc(F)ccc21 [compound 215]
M1 muscarinic receptor; CHO cells expressing M1, FLIPR calcium assay
  M1 Activity: +++ (activity was measured to be less than 2.0 μM)
M1 muscarinic receptor; [5]
  Emax: 25 to 100%
M2 muscarinic receptor; CHO cells expressing M2, FLIPR calcium assay
  M2 Activity: +++ (activity was measured to be less than 2.0 μM)
M2 muscarinic receptor; [5]
  Emax: 25 to 100%
M3 muscarinic receptor; CHO cells expressing M3, FLIPR calcium assay
  M3 Activity: + (activity was measured to be greater than 5.0 μM)
M3 muscarinic receptor; [5]
  Emax: < 25%
M4 muscarinic receptor; CHO cells expressing M4, FLIPR calcium assay
  M4 Activity: +++ (activity was measured to be less than 2.0 μM)
M4 muscarinic receptor; [5]
  Emax: 25 to 100%
